In publication PMC9061999, “Application of the Adverse Outcome Pathway Concept to In Vitro Nephrotoxicity Assessment: Kidney Injury due to Receptor-Mediated Endocytosis and Lysosomal Overload as a Case Study” (Frontiers in Toxicology, 2022):
Structures can show the parent of a compound that is named as a salt. Where two headings read alike, the source gives them in different places.

Key:
RPTEC/TERT1 cells = format: cell-based, human
Description: For high content imaging, NRK-52E and RPTEC/TERT1 cells were cultivated in µ-clear half well area microtiter plates (Greiner) according to the protocol described for the cytotoxicity assay with slight modification. Briefly, NRK-52E cells were seeded at 5,000 cells in 100 µL growth medium per well and were incubated under standard growth conditions for 48 h prior to treatment. RPTEC/TERT1 cells were seeded at 15,000 cells in 100 µL growth medium per well and incubated under standard growth conditions for 7–8 days, until cells reached confluence and started to differentiate. This was indicated by the formation of three-dimensional structures referred to as domes which were identified by regular microscopic inspection of the plates. Only differentiated cell cultures with detectable domes were assayed. Cells of both cell lines were treated with serially diluted Polymyxin B sulfate (concentration range 7.8 to 2,000 µM) for 1, 2, 4, 6, or up to 24 h. The assay was carried out on three biological replicates defined as three different non-consecutive passages of the cell culture. Each biological replicate at each treatment concentration was assayed in triplicate wells per plate.
Following treatment, cells were stained with two different combinations of fluorescent dyes: NRK-52E cells with 50 pg/μL LysoView™ 633 (Biotium) and 1 µM SYTO 16 (Thermo Scientific), respectively, for lysosomes and nuclei; RPTEC/TERT1 cells with 10 nM LysoTracker™ Red (Thermo Scientific) and 10 ng/μL Hoechst 33342 (Merck-Sigma Aldrich), respectively, for lysosomes and nuclei. For each cell line a staining solution was obtained by mixing the lysosomes and nuclei dyes in cell culture medium at the concentrations indicated above. The cells were stained by replenishing the medium for 100 µL of staining solution per well followed by incubation at 37°C and 5% CO2 for 30 min before imaging.
Images were acquired with a fully automated fluorescence confocal Opera™ QEHS system (PerkinElmer, United Kingdom) using a ×40 air UPlanApo objective (Olympus) with 0.85 numerical aperture. NRK-52E cells stained with the dyes SYTO 16 and LysoView™633 were imaged with the laser lines 488 and 635 nm, using a 488/561/635 nm primary dichroic mirror, a 510 nm long pass (LP) detection dichroic mirror, a 540/75 nm band pass (BP) emission filter for SYTO 16 and a 690/50 nm BP emission filter for LysoView™ 633. RPTEC/TERT1 cells stained with the dyes Hoechst 33342 and LysoTracker™Red were imaged with the laser lines 405 and 561 nm, using a 405/561/635 nm primary dichroic mirror, a 580 nm LP detection dichroic mirror, a 450/50 nm BP emission filter for Hoechst 33342 and a 600/40 nm BP emission filter for LysoTracker™Red. To prevent cross talk of the fluorescent signals, each dye was imaged consecutively using the combination of lasers and filters described above. The settings for laser power, exposure time and focal height were kept constant for each cell line across all the experiments. For NRK-52E cells images were acquired at 25 randomly distributed positions in a well at a single focal plane whereas for RPTEC/TERT1 cells due to the development of dome structures images were acquired at 9 random positions at three focal planes each 1 μm apart.
The images were analyzed by custom-made image analysis scripts either with the imaging analysis software Acapella (version 2.8 PerkinElmer) or Columbus (version 2.4.0 PerkinElmer). The scripts included modules for the identification and counting of the cell nuclei to extrapolate the number of cells per well, for definition of a cytoplasm surrounding the nucleus, for identification and counting of the lysosome vesicles within the cytoplasm. Additional cellular parameters included the nuclei size, intensity, the cell size (cell area), the lysosome size (lysosome area), intensity and the number of lysosomes normalized by the cell area to compensate for difference in size of the cells.

[1] = system: RPTEC/TERT1 and NRK-52E cells; test: In vitro key event assays (LAMP-1/2, cathepsin D, cell viability) compared across both cell models; format: cell-based, human and rat; details: for Effect on cell viability / cytotoxicity (KE3): CellTiter-Glo
Description: Cells were plated into 96-well tissue culture plates (10,000 cells per well) and were allowed to grow for 48 h (NRK-52E) respectively 10 d (RPTEC/TERT1) prior to 24 h treatment with model stressors. Stock solution for each compound (2000 µM) was prepared in growth medium and serial dilutions (1:1) were made before each experiment. At the end of the 24 h treatment, cell viability was measured using the CellTiter-Glo® assay (Promega). CellTiter-Glo® reagents and buffer were mixed under light-protected conditions and 100 µL CellTiter-Glo® solution was added directly to each well followed by 2 min incubation on an orbital shaker and 10 min incubation at room temperature in the dark to stabilize the luminescence signal. The suspension was mixed via pipetting and 50 µL were transferred into white 96-well plates (PerkinElmer Inc.). The luminescence signal was measured on a multiplate reader (Mithras LB 940; Berthold). Each assay was performed in three independent experiments carried out in triplicates.
For immunocytochemistry experiments, cells were seeded into 8-well chamber slides (Ibidi) at a density of 140 cells per µL in 300 µL growth medium and were allowed to grow for 48 h (NRK-52E) or 10 d (RPTEC/TERT1) respectively. For treatment, stock solutions (1,000 µM) of compounds dissolved in growth medium were freshly prepared and serial dilutions were made before exposure of cells for 24 h. After treatment, cells were washed twice with 150 µL PBS and fixed with 150 µL 4% paraformaldehyde in 1 x PBS for 10 min at room temperature. After fixation, cells were washed 10 min with 150 µL PBS on an orbital shaker followed by permeabilization with 150 µL 0.2% Triton X-100 in 1 x PBS for 5 min at room temperature on an orbital shaker. The permeabilized cells were washed twice with 1 x PBS (150 µL) for 10 min at room temperature on an orbital shaker and then incubated with 150 µL 5% BSA dissolved in 1 x PBS for 1 h at room temperature to block unspecific binding sites. After blocking, 100 µL primary antibody diluted 1:100 in 1% BSA in 1 x PBS were directly pipetted onto the cells and incubated overnight at 4°C. The following antibodies were employed for NRK-52E cells: Anti-LAMP-1 monoclonal IgG1 kappa mouse antibody (Santa Cruz; sc-20011), anti-Cathepsin D mouse monoclonal IgG2 kappa antibody (Santa Cruz; sc-377124); for RPTEC/TERT1 cells: Anti-LAMP-2 monoclonal mouse antibody (Santa Cruz; sc-18822), anti-Cathepsin D mouse monoclonal IgG2b kappa (Novus Biologicals; NBP1-04278); for both cell lines anti-megalin mouse monoclonal IgG1 antibody (Santa Cruz, sc-515772).
After incubation with primary antibody, cells were washed three times for 15 min with 0.2% Tween in 1 x PBS (150 µL) on an orbital shaker. Cells were incubated for 1 h at room temperature with 100 µL CFL 488-conjugated mouse IgG kappa binding protein (1:50) (m-IgGκ BP-CFL 488; Santa Cruz, sc-516176). After incubation the cells were washed three times for 15 min with 0.2% Tween in 1 x PBS on an orbital shaker and once with 150 µL sterile water. Phalloidin-tetramethylrhodamine B isothiocyanate (TRITC) was used to stain the cytoskeleton and was diluted in 100% methanol to a stock concentration of 0.1 mg/ml and further diluted in 1 x PBS to a working concentration of 0.095 µM. After cells were washed once with 1 x PBS for 10 min at room temperature 150 µL phalloidin-TRITC working solution was added and the cells were incubated on an orbital shaker at room temperature for 60–90 min. After incubation, phalloidin-TRITC solution was aspirated, and the cells were washed once with 1 x PBS. Chamber slides were allowed to dry for 15 min at room temperature. To preserve fluorescence 50–100 µL DAPI mounting medium (Vectashield®; Vectorlab, Biozol) was added to the cells and chamber slides were stored at 4°C in the dark until image acquisition. […]

[2] = RPTEC/TERT1, 24 h, 7.8 to 2000 µM (smaller range for CdCl2 and 4-aminophenol), triplicate experiments, Figure S1
[3] = RPTEC/TERT1 and NRK-52E, 24 h treatment

| Compound | Effect on lysosomal endpoints in high content screening (RPTEC/TERT1 cells; [2]) | other results |
| --- | --- | --- |
| Nc1ccc(O)cc1 [4-aminophenol] |  | Effect on lysosomal endpoints in high content screening (RPTEC/TERT1 cells): minor changes |
| [Cl][Cd][Cl] [CdCl2, cadmium chloride] | most prominent effects on lysosomal endpoints | Cytotoxicity compared between RPTEC/TERT1 and NRK-52E cells ([1]; 24 h treatment, cell viability): more toxic in NRK-52E cells; Effect on LAMP-1/2 expression (KE1) ([1]; RPTEC/TERT1 and NRK-52E, 24 h, immunofluorescence image analysis): only minor effects on LAMP1/2 expression; Effect on cell viability / cytotoxicity (KE3) [1, 3]: significant cytotoxicity |
| N[C@@H](CSC(Cl)=C(Cl)Cl)C(=O)O [TCVC, S-(1,2,2-trichlorovinyl)-L-cysteine] | minor changes |  |
| Nc1ccn(C[C@@H](CO)OCP(=O)(O)O)c(=O)n1 [cidofovir] | minor changes |  |
| CNC(C)C1CCC(N)C(OC2C(N)CC(N)C(OC3OCC(C)(O)C(NC)C3O)C2O)O1 (centres unmarked) [gentamicin] | most prominent effects on lysosomal endpoints |  |
| CC(C)OC(=O)OCOP(=O)(CO[C@H](C)Cn1cnc2c(N)ncnc21)OCOC(=O)OC(C)C [tenofovir disoproxil fumarate] | minor changes |  |
| C[C@H](Cn1cnc2c(N)ncnc21)OCP(=O)(O)O [tenofovir] | minor changes |  |
| CN[C@H](CC(C)C)C(=O)N[C@H]1C(=O)N[C@@H](CC(N)=O)C(=O)N[C@H]2C(=O)N[C@H]3C(=O)N[C@H](C(=O)N[C@H](C(=O)O)c4cc(O)cc(O)c4-c4cc3ccc4O)[C@H](O)c3ccc(c(Cl)c3)Oc3cc2cc(c3O[C@@H]2O[C@H](CO)[C@@H](O)[C@H](O)[C@H]2O[C@H]2C[C@](C)(N)[C@H](O)[C@H](C)O2)Oc2ccc(cc2Cl)[C@H]1O [vancomycin] |  | Effect on lysosomal endpoints in high content screening (RPTEC/TERT1 cells): most prominent effects on lysosomal endpoints |
| Polymyxin B nonapeptide | most prominent effects on lysosomal endpoints | Rank order of effects of the 3 polymyxin derivatives across all KEs ([1]; RPTEC/TERT1 and NRK-52E, 24 h): least toxic; Effect on cell viability / cytotoxicity (KE3) [1, 3]: low |
